Experiments:
[1] = system: Mycobacterium tuberculosis (M. tuberculosis Kurono); assay: Antibacterial test (agar dilution method), M. tuberculosis Kurono; format: cell-based; settings: 7H11 agar medium, about 10^6 CFU/mL, 37° C. for 14 days; for MIC: Mycobacterium tuberculosis, 336 h, read-out: Minimum inhibitory concentration (MIC) kurono

N#CC1(c2ccc(Cl)cc2F)CCC(O)(COc2ccc(F)c3c2CCC(=O)N3)CC1 (stereo not drawn) [Example 476, trans-1-(4-Chloro-2-fluorophenyl)-4-{[(8-fluoro-2-oxo-1,2,3,4-tetrahydroquinolin-5-yl)oxy]methyl}-4-hydroxycyclohexanecarbonitrile]
Minimum inhibitory concentration (MIC) kurono [1]: <0.39 µg/mL

O=C1CCc2c(OC[C@]3(O)CC[C@@H](c4ccc(Cl)cc4F)C[C@H]3O)ccc(F)c2N1 (relative stereo) [Example 471, 5-{[(1R*,2R*,4R*)-4-(4-Chloro-2-fluorophenyl)-1,2-dihydroxycyclohexyl]methoxy}-8-fluoro-3,4-dihydroquinolin-2(1H)-one]
MIC [1]: < 0.39 µg/mL

O=C1CCc2c(OCC3(O)CCN(c4ncc(Cl)cc4Cl)CC3)ccc(Cl)c2N1 [Example 139, 8-Chloro-5-{[1-(3,5-dichloropyridin-2-yl)-4-hydroxypiperidin-4-yl]methoxy}-3,4-dihydroquinolin-2(1H)-one]
MIC [1]: < 0.39 µg/mL
melting point: 218 °C

O=C1CCc2c(OC[C@@]3(O)CCN(c4c(F)cc(Cl)cc4F)C[C@H]3F)ccc(F)c2N1 [Example 446, 5-{[(3R,4S)-1-(4-Chloro-2,6-difluorophenyl)-3-fluoro-4-hydroxypiperidin-4-yl]methoxy}-8-fluoro-3,4-dihydroquinolin-2(1H)-one]
MIC [1]: < 0.39 µg/mL
melting point: 224 to 225 °C

CCOc1ccc(N2CCC(O)(COc3ccc(F)c4c3CCC(=O)N4)CC2)c(F)c1 [Example 85, 5-{[1-(4-Ethoxy-2-fluorophenyl)-4-hydroxypiperidin-4-yl]methoxy}-8-fluoro-3,4-dihydroquinolin-2(1H)-one]
MIC [1]: < 0.39 µg/mL
melting point: 196 to 196.1 °C

O=C1CCc2c(OCC3CCN(c4ncc(Cl)cc4Cl)CC3)ccc(F)c2N1 [Example 399, 5-{[1-(3,5-Dichloropyridin-2-yl)piperidin-4-yl]methoxy}-8-fluoro-3,4-dihydroquinolin-2(1H)-one]
MIC [1]: < 0.39 µg/mL
melting point: 194 to 195 °C

O=C1CCc2c(OCC3(O)CCN(c4c(F)cc(F)cc4F)CC3)cc(F)c(Cl)c2N1 [Example 214, 8-Chloro-7-fluoro-5-{[4-hydroxy-1-(2,4,6-trifluorophenyl)piperidin-4-yl]methoxy}-3,4-dihydroquinolin-2(1H)-one]
MIC [1]: < 0.39 µg/mL

NC1(COc2ccc(F)c3c2CCC(=O)N3)CCN(c2ncc(Cl)cc2Cl)CC1 [Example 1, 5-{[4-Amino-1-(3,5-dichloropyridin-2-yl)piperidin-4-yl]methoxy}-8-fluoro-3,4-dihydroquinolin-2(1H)-one]
MIC [1]: < 0.39 µg/mL

O=C1CCc2c(OC[C@]3(O)CCN(c4c(F)cc(Cl)cc4F)C[C@@H]3F)ccc(F)c2N1 [Example 447, 5-{[(3S,4R)-1-(4-Chloro-2,6-difluorophenyl)-3-fluoro-4-hydroxypiperidin-4-yl]methoxy}-8-fluoro-3,4-dihydroquinolin-2(1H)-one]
MIC [1]: < 0.39 µg/mL
melting point: 224 to 225 °C

O=C1CCc2c(OC[C@@]3(O)CCN(c4ccc(Cl)cc4F)C[C@@H]3O)ccc(F)c2N1 [Example 265, 5-{[(3S,4S)-1-(4-Chloro-2-fluorophenyl)-3,4-dihydroxypiperidin-4-yl]methoxy}-8-fluoro-3,4-dihydroquinolin-2(1H)-one]
MIC [1]: < 0.39 µg/mL

O=C1CCc2c(CCC3(O)CCN(c4c(F)cc(Cl)cc4F)CC3)ccc(F)c2N1 [Example 463, 5-{2-[1-(4-Chloro-2,6-difluorophenyl)-4-hydroxypiperidin-4-yl]ethyl}-8-fluoro-3,4-dihydroquinolin-2(1H)-one]
MIC [1]: < 0.39 µg/mL

O=C1CCc2c(OC[C@]3(O)CCN(c4c(F)cc(Cl)cc4F)C[C@H]3O)ccc(F)c2N1 [Example 260, 5-{[(3R,4R)-1-(4-Chloro-2,6-difluorophenyl)-3,4-dihydroxypiperidin-4-yl]methoxy}-8-fluoro-3,4-dihydroquinolin-2(1H)-one]
MIC [1]: < 0.39 µg/mL

Cc1c(F)cc(OCC2(O)CCN(c3cc(F)c(Cl)cc3Cl)CC2)c2c1NC(=O)CC2 [Example 206, 5-{[1-(2,4-Dichloro-5-fluorophenyl)-4-hydroxypiperidin-4-yl]methoxy}-7-fluoro-8-methyl-3,4-dihydroquinolin-2(1H)-one]
MIC [1]: < 0.39 µg/mL

O=C1CCc2c(OC[C@]3(O)CCN(c4c(F)cc(Cl)cc4F)C[C@@H]3O)ccc(F)c2N1 [Example 361, 5-{[(3S,4R)-1-(4-Chloro-2,6-difluorophenyl)-3,4-dihydroxypiperidin-4-yl]methoxy}-8-fluoro-3,4-dihydroquinolin-2(1H)-one]
MIC [1]: < 0.39 µg/mL

NC1(COc2ccc(Cl)c3c2CCC(=O)N3)CCN(c2ccc(Cl)cc2F)CC1 [Example 14, 5-{[4-Amino-1-(4-chloro-2-fluorophenyl)piperidin-4-yl]methoxy}-8-chloro-3,4-dihydroquinolin-2(1H)-one]
MIC [1]: < 0.39 µg/mL

O=C1CCc2c(OC[C@]3(O)CCN(c4nc5ccc(Cl)cc5cc4Br)C[C@H]3O)ccc(F)c2N1 [Example 288, 5-{[(3R,4R)-1-(3-Bromo-6-chloroquinolin-2-yl)-3,4-dihydroxypiperidin-4-yl]methoxy}-8-fluoro-3,4-dihydroquinolin-2(1H)-one]
MIC [1]: < 0.39 µg/mL

O=C1CCc2c(OC[C@]3(O)CC[C@@](O)(c4ccc(Cl)cc4F)C[C@H]3O)ccc(F)c2N1 (relative stereo) [Example 473, 5-{[(1R*,2R*,4S*)-4-(4-Chloro-2-fluorophenyl)-1,2,4-trihydroxycyclohexyl]methoxy}-8-fluoro-3,4-dihydroquinolin-2(1H)-one]
MIC [1]: < 0.39 µg/mL

O=C1CCc2c(OC[C@]3(O)CCN(c4ncc(Cl)cc4Cl)C[C@H]3O)ccc(F)c2N1 [Example 251, 5-{[(3R,4R)-1-(3,5-Dichloropyridin-2-yl)-3,4-dihydroxypiperidin-4-yl]methoxy}-8-fluoro-3,4-dihydroquinolin-2(1H)-one]
MIC [1]: < 0.39 µg/mL

O=C1CCc2c(OCC3(F)CCN(c4ncc(Cl)cc4Cl)CC3)ccc(F)c2N1 [Example 404, 5-{[1-(3,5-Dichloropyridin-2-yl)-4-fluoropiperidin-4-yl]methoxy}-8-fluoro-3,4-dihydroquinolin-2(1H)-one]
MIC [1]: < 0.39 µg/mL

O=C1CCc2c(OC[C@@]3(O)CCN(c4ncc(Cl)cc4Cl)C[C@@H]3O)ccc(F)c2N1 [Example 252, 5-{[(3S,4S)-1-(3,5-Dichloropyridin-2-yl)-3,4-dihydroxypiperidin-4-yl]methoxy}-8-fluoro-3,4-dihydroquinolin-2(1H)-one]
MIC [1]: < 0.39 µg/mL

NC1(COc2ccc(Cl)c3[nH]c(=O)ccc23)CCN(c2ccc(Cl)cc2F)CC1 [Example 17, 5-{[4-Amino-1-(4-chloro-2-fluorophenyl)piperidin-4-yl]methoxy}-8-chloroquinolin-2(1H)-one]
MIC [1]: < 0.39 µg/mL

O=C1CCc2c(cc(F)cc2OCC2(O)CCN(c3ccc(Cl)cc3F)CC2)N1 [Example 194, 5-{[1-(4-Chloro-2-fluorophenyl)-4-hydroxypiperidin-4-yl]methoxy}-7-fluoro-3,4-dihydroquinolin-2(1H)-one]
MIC [1]: < 0.39 µg/mL

O=C1CCc2c(NCC3(O)CCN(c4ncc(Cl)cc4Cl)CC3)ccc(F)c2N1 [Example 372, 5-({[1-(3,5-Dichloropyridin-2-yl)-4-hydroxypiperidin-4-yl]methyl}amino)-8-fluoro-3,4-dihydroquinolin-2(1H)-one]
MIC [1]: < 0.39 µg/mL

O=C1CCc2c(OCC3(O)CCC(O)(c4ccc(Cl)cc4F)CC3)ccc(F)c2N1 (stereo not drawn) [Example 465, 5-{[trans-4-(4-Chloro-2-fluorophenyl)-1,4-dihydroxycyclohexyl]methoxy}-8-fluoro-3,4-dihydroquinolin-2(1H)-one]
Minimum inhibitory concentration (MIC) kurono [1]: <0.39 µg/mL

O=C1CCc2c(OCC3(O)CCC(c4ccc(Cl)cc4F)CC3)ccc(F)c2N1 (stereo not drawn) [Example 469, 5-{[cis-4-(4-Chloro-2-fluorophenyl)-1-hydroxycyclohexyl]methoxy}-8-fluoro-3,4-dihydroquinolin-2(1H)-one]
Minimum inhibitory concentration (MIC) kurono [1]: <0.39 µg/mL

O=c1ccc2c(OC[C@]3(O)CCN(c4ccc(Br)cc4F)C[C@H]3O)ccc(F)c2[nH]1 (relative stereo) [Example 369, 5-{[(3R*,4R*)-1-(4-Bromo-2-fluorophenyl)-3,4-dihydroxypiperidin-4-yl]methoxy}-8-fluoroquinolin-2(1H)-one]
MIC [1]: < 0.39 µg/mL

O=C1CCc2c(OC[C@H]3CCN(c4ccc(Cl)cc4F)C[C@@H]3O)ccc(F)c2N1 (relative stereo) [Example 419, 5-{[(3R*,4R*)-1-(4-Chloro-2-fluorophenyl)-3-hydroxypiperidin-4-yl]methoxy}-8-fluoro-3,4-dihydroquinolin-2(1H)-one]
MIC [1]: < 0.39 µg/mL

CCOC(=O)O[C@@H]1CN(c2c(F)cc(Cl)cc2F)CC[C@@]1(O)COc1ccc(F)c2c1CCC(=O)N2 [Example 450, (3R,4R)-1-(4-chloro-2,6-difluorophenyl)-4-{[(8-fluoro-2-oxo-1,2,3,4-tetrahydroquinolin-5-yl)oxy]methyl}-4-hydroxypiperidin-3-yl ethyl carbonate]
MIC [1]: < 0.39 µg/mL

CC(=O)O[C@@H]1CN(c2ccc(Cl)cc2F)CC[C@@]1(O)COc1ccc(F)c2c1CCC(=O)N2 [Example 454, (3R,4R)-1-(4-Chloro-2-fluorophenyl)-4-{[(8-fluoro-2-oxo-1,2,3,4-tetrahydroquinolin-5-yl)oxy]methyl}-4-hydroxypiperidin-3-yl acetate]
MIC [1]: < 0.39 µg/mL

O=C1CCc2c(OCC3(O)CCN(c4ccc(Cl)cc4)CC3)ccc(F)c2N1 [Example 49, 5-{[1-(4-Chlorophenyl)-4-hydroxypiperidin-4-yl]methoxy}-8-fluoro-3,4-dihydroquinolin-2(1H)-one]
MIC [1]: < 0.39 µg/mL

COC1(c2ccc(Cl)cc2F)CCC(O)(COc2ccc(F)c3c2CCC(=O)N3)CC1 (stereo not drawn) [Example 477, 5-{[trans-4-(4-Chloro-2-fluorophenyl)-1-hydroxy-4-methoxycyclohexyl]methoxy}-8-fluoro-3,4-dihydroquinolin-2(1H)-one]
Minimum inhibitory concentration (MIC) kurono [1]: <0.39 µg/mL

O=C1CCc2c(OCC3(O)CCN(c4ccc(Br)cc4F)CC3)cc(F)c(F)c2N1 [Example 130, 5-{[1-(4-Bromo-2-fluorophenyl)-4-hydroxypiperidin-4-yl]methoxy}-7,8-difluoro-3,4-dihydroquinolin-2(1H)-one]
MIC [1]: < 0.39 µg/mL

Reference: patent US10464926B2, “Heterobicyclic compounds and their use for the treatment of tuberculosis” (OTSUKA PHARMACEUTICAL CO., LTD., priority 2014, dated 2019)
